# US12139520B2 (priority 2020, dated 2024)
# Numbered stars: 1 amine (or outer) side, 2 acyl side, 3 side chain; on linkers, the order of the positions; unused ones are H or OH. Bridge positions count the residues as written; N and C are the ends. Square brackets hold non-standard residues; d marks the D form. Side chains are listed from the residue outwards. Peptide text beside a SMILES is read from it. * marks the point of attachment. C20 diacid = O=C(O)CCCCCCCCCCCCCCCCCCC(=O)*; γGlu = O=C(O)[C@H](CCC(=O)[*:2])N[*:1]; Hyp = O=C(O)[C@@H]1C[C@@H](O)CN1; AEEA = NCCOCCOCC(=O)O
# Tests used:
# hAM1 receptor = hAM1 receptor (Homo sapiens, UniProt O60895+Q16602); assay: cAMP assay for in vitro receptor activation, hAM1-R; format: cell-based; details: cAMP assay, hAM1 receptor; read-out: hAM1R EC50
# Method in brief: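 Monoclonal stable hAM1-overexpressing cells, thawed from frozen stock; 8000 cells/well in DPBS + 0.05% casein + 0.5 mM IBMX; read-out cAMP.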
# hAMY3 receptor = target: T1, hAMY3 receptor (Homo sapiens, UniProt O60896+P30988); assay: cAMP assay for in vitro receptor activation, hAMY3-R; format: cell-based; details: cAMP assay, hAMY3 receptor; read-out: hAMY3R EC50
# T1 sequence (P30988 25-474): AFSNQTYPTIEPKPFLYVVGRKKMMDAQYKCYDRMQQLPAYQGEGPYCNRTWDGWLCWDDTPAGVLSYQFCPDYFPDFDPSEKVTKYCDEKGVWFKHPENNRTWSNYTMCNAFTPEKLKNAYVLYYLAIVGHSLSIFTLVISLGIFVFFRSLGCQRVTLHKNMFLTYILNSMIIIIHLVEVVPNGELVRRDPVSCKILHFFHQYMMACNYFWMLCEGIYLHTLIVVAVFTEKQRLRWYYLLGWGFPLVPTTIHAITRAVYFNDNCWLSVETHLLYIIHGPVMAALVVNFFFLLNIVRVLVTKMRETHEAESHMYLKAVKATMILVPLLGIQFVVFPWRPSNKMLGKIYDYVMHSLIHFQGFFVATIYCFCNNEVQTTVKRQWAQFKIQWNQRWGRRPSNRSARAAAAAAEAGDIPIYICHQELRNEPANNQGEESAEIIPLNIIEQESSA
# T1 sequence (O60896 24-148 partner): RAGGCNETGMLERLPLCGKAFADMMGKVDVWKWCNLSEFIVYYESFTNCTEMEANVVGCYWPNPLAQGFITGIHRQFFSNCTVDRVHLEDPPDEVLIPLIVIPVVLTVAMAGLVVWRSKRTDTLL
# Method in brief: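 Graded compound concentrations were applied for 30 min at room temperature to stably hAMY3-expressing cells in DPBS, 0.05% casein, 0.5 mM IBMX; cAMP detected by TR-FRET.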
# Chain of hAM1 receptor (Q16602 23-461): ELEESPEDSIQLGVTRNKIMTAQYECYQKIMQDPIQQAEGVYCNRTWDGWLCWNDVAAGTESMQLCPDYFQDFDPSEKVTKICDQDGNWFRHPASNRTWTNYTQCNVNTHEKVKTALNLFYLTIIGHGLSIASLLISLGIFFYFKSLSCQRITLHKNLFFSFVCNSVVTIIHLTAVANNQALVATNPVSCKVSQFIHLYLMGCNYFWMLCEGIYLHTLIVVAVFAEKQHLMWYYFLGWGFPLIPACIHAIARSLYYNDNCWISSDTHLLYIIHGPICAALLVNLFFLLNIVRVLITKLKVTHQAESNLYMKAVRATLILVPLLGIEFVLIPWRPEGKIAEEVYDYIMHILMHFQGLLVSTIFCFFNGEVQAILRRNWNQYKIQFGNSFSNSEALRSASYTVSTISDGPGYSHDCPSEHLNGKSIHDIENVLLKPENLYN
# Chain of hAM1 receptor (O60895 43-175 partner): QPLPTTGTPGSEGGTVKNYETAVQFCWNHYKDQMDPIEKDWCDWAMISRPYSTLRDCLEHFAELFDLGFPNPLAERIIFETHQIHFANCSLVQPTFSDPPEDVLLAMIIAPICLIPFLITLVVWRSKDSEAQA
EC50 (hAM1 receptor),EC50 (hAMY3 receptor),Compound
> 5 µM,0.008 nM,CC[C@H](C)[C@H](NC(=O)[C@H](CCC(N)=O)NC(=O)[C@H](CC(N)=O)NC(=O)[C@H](C)NC(=O)[C@H](CC(C)C)NC(=O)[C@H](CCCNC(=N)N)NC(=O)[C@H](CCC(N)=O)NC(=O)[C@@H](NC(=O)[C@@H](NC(=O)[C@@H]1CSSC[C@H](NC(=O)[C@H](CCCCN)NC(=O)CC[C@H](NC(=O)CCCCCCCCCCCCCCCCCCC(=O)O)C(=O)O)C(=O)N[C@@H](CC(N)=O)C(=O)N[C@@H]([C@@H](C)O)C(=O)N[C@@H](C)C(=O)N[C@@H]([C@@H](C)O)C(=O)N1)[C@@H](C)O)C(C)C)C(=O)N[C@@H](Cc1ccc(O)cc1)C(=O)N[C@@H](CCC(N)=O)C(=O)N[C@@H](Cc1ccccc1)C(=O)N[C@H](C(=O)N[C@@H](CC(=O)O)C(=O)N[C@@H](CCCCN)C(=O)N[C@@H](CC(=O)O)C(=O)N[C@@H](CCCCN)C(=O)N[C@@H](CC(=O)O)C(=O)N[C@@H](CC(N)=O)C(=O)N[C@H](C(=O)N[C@@H](C)C(=O)N1CCC[C@H]1C(=O)N1CCC[C@H]1C(=O)N[C@H](C(=O)N[C@@H](CC(N)=O)C(=O)N[C@H](C(=O)NCC(=O)N[C@@H](CO)C(=O)N[C@@H](CC(N)=O)C(=O)NCC(=O)N1C[C@H](O)C[C@H]1C(N)=O)C(C)C)[C@@H](C)O)C(C)C)[C@@H](C)O [compound 21] ({C20 diacid-γGlu}-KCNTATCTVQRLANQIYQFTDKDKDNVAPPTNVGSNG[Hyp]-NH2; disulfide 2-7)
> 5 µM,0.015 nM,CC[C@H](C)[C@H](NC(=O)[C@H](CCC(N)=O)NC(=O)[C@H](CCC(=O)O)NC(=O)[C@H](C)NC(=O)[C@H](CC(C)C)NC(=O)[C@H](CCCNC(=N)N)NC(=O)[C@H](CCC(N)=O)NC(=O)[C@@H](NC(=O)[C@@H](NC(=O)[C@@H]1CSSC[C@H](NC(=O)[C@@H](N)CCCCN)C(=O)N[C@@H](CC(N)=O)C(=O)N[C@@H]([C@@H](C)O)C(=O)N[C@@H](C)C(=O)N[C@@H]([C@@H](C)O)C(=O)N1)[C@@H](C)O)C(C)C)C(=O)N[C@@H](Cc1ccc(O)cc1)C(=O)N[C@@H](CCC(N)=O)C(=O)N[C@@H](Cc1ccccc1)C(=O)N[C@@H](CCCCNC(=O)COCCOCCNC(=O)COCCOCCNC(=O)CC[C@H](NC(=O)CCCCCCCCCCCCCCCCCCC(=O)O)C(=O)O)C(=O)N[C@@H](CC(=O)O)C(=O)N[C@@H](CCCCN)C(=O)N[C@@H](CC(=O)O)C(=O)N[C@@H](CCCCN)C(=O)N[C@@H](CC(=O)O)C(=O)N[C@@H](CC(N)=O)C(=O)N[C@H](C(=O)N[C@@H](C)C(=O)N1CCC[C@H]1C(=O)N1CCC[C@H]1C(=O)N[C@H](C(=O)N[C@@H](CC(N)=O)C(=O)N[C@H](C(=O)NCC(=O)N[C@@H](CO)C(=O)N[C@@H](CC(N)=O)C(=O)NCC(=O)N1C[C@H](O)C[C@H]1C(N)=O)C(C)C)[C@@H](C)O)C(C)C [compound 89] (H-KCNTATCTVQRLAEQIYQFK([AEEA-AEEA-γGlu-C20 diacid])DKDKDNVAPPTNVGSNG[Hyp]-NH2; disulfide 2-7; N-terminus assumed)
> 5 µM,0.014 nM,CC[C@H](C)[C@H](NC(=O)[C@H](CCC(N)=O)NC(=O)[C@H](Cc1c[nH]cn1)NC(=O)[C@H](C)NC(=O)[C@H](CC(C)C)NC(=O)[C@H](CCCNC(=N)N)NC(=O)[C@H](CCC(N)=O)NC(=O)[C@@H](NC(=O)[C@@H](NC(=O)[C@@H]1CSSC[C@H](NC(=O)[C@H](CCCCN)NC(=O)CC[C@H](NC(=O)CCCCCCCCCCCCCCCCCCC(=O)O)C(=O)O)C(=O)N[C@@H](CC(N)=O)C(=O)N[C@@H]([C@@H](C)O)C(=O)N[C@@H](C)C(=O)N[C@@H]([C@@H](C)O)C(=O)N1)[C@@H](C)O)C(C)C)C(=O)N[C@@H](Cc1ccc(O)cc1)C(=O)N[C@@H](CCC(N)=O)C(=O)N[C@@H](Cc1ccccc1)C(=O)N[C@H](C(=O)N[C@@H](CC(=O)O)C(=O)N[C@@H](CCCCN)C(=O)N[C@@H](CC(=O)O)C(=O)N[C@@H](CCCCN)C(=O)N[C@@H](CC(=O)O)C(=O)N[C@@H](CC(N)=O)C(=O)N[C@H](C(=O)N[C@@H](C)C(=O)N1CCC[C@H]1C(=O)N1CCC[C@H]1C(=O)N[C@H](C(=O)N[C@@H](CC(N)=O)C(=O)N[C@H](C(=O)NCC(=O)N[C@@H](CO)C(=O)N[C@@H](CC(N)=O)C(=O)NCC(=O)N1C[C@H](O)C[C@H]1C(N)=O)C(C)C)[C@@H](C)O)C(C)C)[C@@H](C)O [compound 77] ({C20 diacid-γGlu}-KCNTATCTVQRLAHQIYQFTDKDKDNVAPPTNVGSNG[Hyp]-NH2; disulfide 2-7)
> 5 µM,0.015 nM,CC[C@H](C)[C@H](NC(=O)[C@H](CCC(N)=O)NC(=O)[C@H](Cc1c[nH]cn1)NC(=O)[C@H](C)NC(=O)[C@H](CC(C)C)NC(=O)[C@H](CCCNC(=N)N)NC(=O)[C@H](CCC(N)=O)NC(=O)[C@@H](NC(=O)[C@@H](NC(=O)[C@@H]1CSSC[C@H](NC(=O)[C@H](CCCCN)NC(=O)CC[C@H](NC(=O)CCCCCCCCCCCCCCCCCCC(=O)O)C(=O)O)C(=O)N[C@@H](CC(N)=O)C(=O)N[C@@H]([C@@H](C)O)C(=O)N[C@@H](C)C(=O)N[C@@H]([C@@H](C)O)C(=O)N1)[C@@H](C)O)C(C)C)C(=O)N[C@@H](C)C(=O)N[C@@H](CCC(N)=O)C(=O)N[C@@H](Cc1ccccc1)C(=O)N[C@H](C(=O)N[C@@H](CC(=O)O)C(=O)N[C@@H](CCCCN)C(=O)N[C@@H](CC(N)=O)C(=O)N[C@@H](CCCCN)C(=O)N[C@@H](CC(=O)O)C(=O)N[C@@H](CC(N)=O)C(=O)N[C@H](C(=O)N[C@@H](C)C(=O)N1CCC[C@H]1C(=O)N1CCC[C@H]1C(=O)N[C@H](C(=O)N[C@@H](CC(N)=O)C(=O)N[C@H](C(=O)NCC(=O)N[C@@H](CO)C(=O)N[C@@H](CC(N)=O)C(=O)NCC(=O)N1C[C@H](O)C[C@H]1C(N)=O)C(C)C)[C@@H](C)O)C(C)C)[C@@H](C)O [compound 87] ({C20 diacid-γGlu}-KCNTATCTVQRLAHQIAQFTDKNKDNVAPPTNVGSNG[Hyp]-NH2; disulfide 2-7)
> 5 µM,0.01 nM,CC[C@H](C)[C@H](NC(=O)[C@H](CCC(N)=O)NC(=O)[C@H](Cc1c[nH]cn1)NC(=O)[C@H](C)NC(=O)[C@H](CC(C)C)NC(=O)[C@H](CCCNC(=N)N)NC(=O)[C@H](CCC(N)=O)NC(=O)[C@@H](NC(=O)[C@@H](NC(=O)[C@@H]1CSSC[C@H](NC(=O)[C@H](CCCNC(=N)N)NC(=O)CC[C@H](NC(=O)CCCCCCCCCCCCCCCCCCC(=O)O)C(=O)O)C(=O)N[C@@H](CC(N)=O)C(=O)N[C@@H]([C@@H](C)O)C(=O)N[C@@H](C)C(=O)N[C@@H]([C@@H](C)O)C(=O)N1)[C@@H](C)O)C(C)C)C(=O)N[C@@H](Cc1ccc(O)cc1)C(=O)N[C@@H](CCC(N)=O)C(=O)N[C@@H](Cc1ccccc1)C(=O)N[C@H](C(=O)N[C@@H](CC(=O)O)C(=O)N[C@@H](CCCCN)C(=O)N[C@@H](CC(=O)O)C(=O)N[C@@H](CCCCN)C(=O)N[C@@H](CC(=O)O)C(=O)N[C@@H](CC(N)=O)C(=O)N[C@H](C(=O)N[C@@H](C)C(=O)N1CCC[C@H]1C(=O)N1CCC[C@H]1C(=O)N[C@H](C(=O)N[C@@H](CC(N)=O)C(=O)N[C@H](C(=O)NCC(=O)N[C@@H](CO)C(=O)N[C@@H](CC(N)=O)C(=O)NCC(=O)N1C[C@H](O)C[C@H]1C(N)=O)C(C)C)[C@@H](C)O)C(C)C)[C@@H](C)O [compound 39] ({C20 diacid-γGlu}-RCNTATCTVQRLAHQIYQFTDKDKDNVAPPTNVGSNG[Hyp]-NH2; disulfide 2-7)
